This passage reports IC50 results from article PMC8775935, “Chebulinic Acid Suppresses Adipogenesis in 3T3-L1 Preadipocytes by Inhibiting PPP1CB Activity” (International Journal of Molecular Sciences, 2022).

The test deals with protein phosphatase-1 catalytic subunit beta (PPP1CB) (Homo sapiens, UniProt P62140). Description: DiFMUP fluorescence phosphatase assay, dose-response. Format: biochemical.

Structures are written as SMILES. pIC50: −log10 of the molar value.

Chain of protein phosphatase-1 catalytic subunit beta (PPP1CB) (P62140 1-266): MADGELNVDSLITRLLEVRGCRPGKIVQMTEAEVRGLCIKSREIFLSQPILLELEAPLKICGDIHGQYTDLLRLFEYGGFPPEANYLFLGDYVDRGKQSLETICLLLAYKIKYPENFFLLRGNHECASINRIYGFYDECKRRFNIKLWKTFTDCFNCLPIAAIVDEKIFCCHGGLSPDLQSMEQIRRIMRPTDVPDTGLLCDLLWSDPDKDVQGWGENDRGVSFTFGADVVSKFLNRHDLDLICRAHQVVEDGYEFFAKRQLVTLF

`O=C(O)C[C@@H]1C(=O)O[C@H]2[C@H](OC(=O)c3cc(O)c(O)c(O)c3)[C@@H](OC(=O)c3cc(O)c(O)c4c3[C@H]1[C@H](O)C(=O)O4)[C@H](OC(=O)c1cc(O)c(O)c(O)c1)O[C@@H]2COC(=O)c1cc(O)c(O)c(O)c1` [compound 147, chebulinic acid]: the pIC50 was 6.52.
